Results taken from patent publication US7795259B2, “Pyrrolopyrazines and pyrazolopyrazines useful as inhibitors of protein kinases” (Vertex Pharmaceuticals Incorporated, priority 2004, dated 2010).

Target: T1, full length Aurora-A (AA 1-403) (Homo sapiens, UniProt O14965)
T1 sequence (O14965 1-403): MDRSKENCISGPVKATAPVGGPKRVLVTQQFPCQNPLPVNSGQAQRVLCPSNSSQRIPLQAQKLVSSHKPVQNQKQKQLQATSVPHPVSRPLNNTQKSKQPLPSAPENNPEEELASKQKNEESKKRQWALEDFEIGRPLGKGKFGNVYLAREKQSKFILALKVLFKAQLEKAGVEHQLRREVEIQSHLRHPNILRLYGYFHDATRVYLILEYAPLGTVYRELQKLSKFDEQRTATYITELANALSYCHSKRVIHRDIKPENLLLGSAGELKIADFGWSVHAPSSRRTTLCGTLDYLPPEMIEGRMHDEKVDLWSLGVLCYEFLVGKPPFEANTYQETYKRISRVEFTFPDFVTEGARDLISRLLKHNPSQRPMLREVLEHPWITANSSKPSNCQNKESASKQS
Assay: AuroraA Inhibition Assay (coupled enzyme system)
Type: biochemical
Conditions: 200 μM ATP, 800 μM peptide LRRASLG, 35 nM Aurora-A, 30° C.
Protocol: Compounds were screened for their ability to inhibit full length Aurora-A (AA 1-403) activity using a standard coupled enzyme system (Fox et al., Protein Sci., 7, pp. 2249 (1998)). Reactions were carried out in a solution containing 100 mM HEPES (pH 7.5), 10 mM MgCl2, 25 mM NaCl, 300 μM NADH, 1 mM DTT and 3% DMSO. Final substrate concentrations in the assay were 200 μM ATP (Sigma Chemicals, St Louis, Mo.) and 800 μM peptide (LRRASLG, American Peptide, Sunnyvale, Calif.). Reactions were carried out at 30° C. and 35 nM Aurora-A. Final concentrations of the components of the coupled enzyme system were 2.5 mM phosphoenolpyruvate, 200 μM NADH, 60 μg/ml pyruvate kinase and 20 μg/ml lactate dehydrogenase.
An assay stock buffer solution was prepared containing all of the reagents listed above with the exception of ATP and the test compound of interest. The assay stock buffer solution (60 μl) was incubated in a 96 well plate with 2 μl of the test compound of interest at final concentrations spanning 0.002 μM to 30 μM at 30° C. for 10 min. […] Rates of reaction were obtained using a Molecular Devices Spectramax plate reader (Sunnyvale, Calif.) over 10 min at 30° C. The Ki values were determined from the rate data as a function of inhibitor concentration using computerized nonlinear regression (Prism 3.0, Graphpad Software, San Diego, Calif.).

Row | Ki [nM] | SMILES
1 | < 200 | Clc1cnc2[nH]cc(-c3cccc(Br)c3)c2n1 [Compound I-1, 7-(3-Bromo-phenyl)-2-chloro-5H-pyrrolo[2,3-b]pyrazine]
2 | < 200 | C[C@H](Nc1nc(-c2c[nH]c3ncc(Cl)nc23)ncc1F)c1ccc(F)cc1 [Compound I-28]
